# Target: T1, human PAR4 (Homo sapiens, UniProt Q96RI0)
# T1 construct: expressed in transfected cells; host or cells: HEK293 PAR4 Clone 1.2A (BMS Arctic ID 383940)
# T1 sequence (Q96RI0 18-385): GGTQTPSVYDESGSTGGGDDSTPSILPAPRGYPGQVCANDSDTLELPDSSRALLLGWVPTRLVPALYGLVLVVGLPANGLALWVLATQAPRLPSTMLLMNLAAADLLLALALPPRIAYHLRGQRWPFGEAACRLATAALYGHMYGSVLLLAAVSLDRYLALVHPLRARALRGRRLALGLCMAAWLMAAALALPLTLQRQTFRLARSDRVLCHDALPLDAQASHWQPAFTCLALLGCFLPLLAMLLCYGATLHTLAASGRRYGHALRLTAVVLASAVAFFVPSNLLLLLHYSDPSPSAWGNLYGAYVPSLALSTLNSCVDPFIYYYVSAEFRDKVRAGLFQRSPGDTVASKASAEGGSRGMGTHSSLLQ
# Test: PAR4 FLIPR assay: antagonism of agonist-peptide-induced calcium mobilization in PAR4-expressing HEK293 cells
# Assay type: cell-based
# Conditions: H-Ala-Phe(4-F)-[…]NH2-induced intracellular calcium mobilization, 11-point curves
row,IC50,Structure (SMILES)
1,53 nM,"COc1cnc2c(-c3nc4cc(F)c(O[C@@H](C)[C@@H](C)OC(=O)Nc5ccnc(CC(C)(C)O)c5)cc4s3)cc(C)cc2n1 [Example 561, (2R,3S)-3-((5-fluoro-2-(2-methoxy-7-methylquinoxalin-5-yl)benzo[d]thiazol-6-yl)oxy)butan-2-yl (2-(2-hydroxy-2-methylpropyl)pyridin-4-yl)carbamate]"
2,1.5 nM,"CNC(=O)c1ccc(NC(=O)O[C@H](C)[C@H](C)Oc2cc3sc(-c4cc(C)cc5nc(OC)cnc45)nc3cc2F)cn1 [Example 436, (2R,3S)-3-((5-fluoro-2-(2-methoxy-7-methylquinoxalin-5-yl)benzo[d]thiazol-6-yl)oxy)butan-2-yl (6-(methylcarbamoyl)pyridin-3-yl)carbamate]"
3,99 nM,"Cc1cc(-c2cn3ccccc3n2)c2ncc(OC(F)F)nc2c1 [Example 45, 2-(difluoromethoxy)-5-(imidazo[1,2-a]pyridin-2-yl)-7-methylquinoxaline]"
4,25 nM,"COCc1cnc2c(-c3nc4c(CN(C)C)cc(OC)cc4s3)cc(C)cc2n1 [Example 159, 1-(6-methoxy-2-(2-(methoxymethyl)-7-methylquinoxalin-5-yl)benzo[d]thiazol-4-yl)-N,N-dimethylmethanamine]"
5,0.8 nM,"COc1cnc2c(-c3nc4c(Cl)c(F)c(O[C@@H](C)[C@@H](C)OC(=O)Nc5cnc(OCCO)nc5)cc4s3)cc(Cl)cc2c1 [Example 795, (2R,3S)-3-((4-chloro-2-(6-chloro-3-methoxyquinolin-8-yl)-5-fluorobenzo[d]thiazol-6-yl)oxy)butan-2-yl (2-(2-hydroxyethoxy)pyrimidin-5-yl)carbamate]"
6,140 nM,"COc1cnc2c(-c3nc4c(C)cc(OCCNS(=O)(=O)c5ccc(F)cc5)cc4s3)cc(C(O)CO)cc2n1 (centres unmarked) [Example 236, N-(2-((2-(7-(1,2-dihydroxyethyl)-2-methoxyquinoxalin-5-yl)-4-methylbenzo[d]thiazol-6-yl)oxy)ethyl)-4-fluorobenzenesulfonamide]"
7,12 nM,"COc1cnc2c(-c3nc4c(C)cc(OCCOC(=O)Nc5ccccc5)cc4s3)cc(C)cc2n1 [Example 110, 2-(2-(2-methoxy-7-methylquinoxalin-5-yl)-4-methylbenzo[d]thiazol-6-yloxy)ethyl phenylcarbamate]"
8,0.7 nM,"COc1cnc2c(-c3nc4cc(F)c(O[C@@H](C)[C@@H](C)OC(=O)Nc5cncc(O)c5)cc4s3)cc(C)cc2n1 [Example 533, (2R,3S)-3-((5-fluoro-2-(2-methoxy-7-methylquinoxalin-5-yl)benzo[d]thiazol-6-yl)oxy)butan-2-yl (5-hydroxypyridin-3-yl)carbamate]"
9,3.1 nM,"COc1cnc2c(-c3nc4cc(F)c(O[C@@H](C)[C@@H](C)OC(=O)Nc5cccnc5)cc4s3)cc(Cl)cc2c1 [Example 788, (2R,3S)-3-((2-(6-chloro-3-methoxyquinolin-8-yl)-5-fluorobenzo[d]thiazol-6-yl)oxy)butan-2-yl pyridin-3-ylcarbamate]"
10,5.2 nM,"COCc1cnc2c(-c3nc4c(Cl)c(C)c(OCCO)cc4s3)cc(C)cc2n1 [Example 327, 2-((4-chloro-2-(2-(methoxymethyl)-7-methylquinoxalin-5-yl)-5-methylbenzo[d]thiazol-6-yl)oxy)ethanol]"
11,0.83 nM,"COc1cnc2c(-c3nc4cc(F)c(O[C@@H](C)[C@@H](C)OC(=O)Nc5cnc(C)nc5)cc4s3)cc(C(F)F)cc2c1 [Example 653, (2R,3S)-3-((2-(6-(difluoromethyl)-3-methoxyquinolin-8-yl)-5-fluorobenzo[d]thiazol-6-yl)oxy)butan-2-yl (2-methylpyrimidin-5-yl)carbamate]"
12,890 nM,"COCCNC(=O)c1cc(-c2nc3c(C)cc(OCCNS(=O)(=O)c4ccc(F)cc4)cc3s2)c2ncc(COC)nc2c1 [Example 228, 8-(6-(2-(4-fluorophenylsulfonamido)ethoxy)-4-methylbenzo[d]thiazol-2-yl)-N-(2-methoxyethyl)-3-(methoxymethyl)quinoxaline-6-carboxamide]"
13,6.5 nM,"COc1cnc2c(-c3nc4cc(F)c(O[C@@H](C)[C@@H](C)OC(=O)Nc5cnc(CO)nc5)cc4s3)cc(Cl)cc2c1 [Example 539, (2R,3S)-3-((2-(6-chloro-3-methoxyquinolin-8-yl)-5-fluorobenzo[d]thiazol-6-yl)oxy)butan-2-yl (2-(hydroxymethyl)pyrimidin-5-yl)carbamate]"
14,2.7 nM,"COCc1cnc2c(-c3nc4cc(F)c(OC)nc4s3)cc(C)cc2n1 [Example 180, 6-fluoro-5-methoxy-2-(2-(methoxymethyl)-7-methylquinoxalin-5-yl)thiazolo[5,4-b] pyridine]"
15,0.2 nM,"COc1cnc2c(-c3nc4cc(F)c(O[C@@H](C)[C@@H](C)OC(=O)Nc5cnc(C(=O)NC[C@H](C)O)nc5)cc4s3)cc(C)cc2n1 [Example 462, (2R,3S)-3-((5-fluoro-2-(2-methoxy-7-methylquinoxalin-5-yl)benzo[d]thiazol-6-yl)oxy)butan-2-yl (2-(((S)-2-hydroxypropyl)carbamoyl)pyrimidin-5-yl)carbamate]"
16,1.4 nM,"COCc1cnc2c(-c3nc4c(C(O)C(C)(C)C)c(C)c(OC)cc4s3)cc(C)cc2n1 (racemic) [Example 328, 1-(6-methoxy-2-(2-(methoxymethyl)-7-methylquinoxalin-5-yl)-5-methylbenzo[d]thiazol-4-yl)-2,2-dimethylpropan-1-ol]"
17,1 nM,"COc1cnc2c(-c3nc4c(C)cc(OC[C@@H](C)OC(=O)Nc5cnc(F)c(C)c5)nc4s3)cc(C)cc2n1 [Example 734, (R)-1-((2-(2-methoxy-7-methylquinoxalin-5-yl)-7-methylthiazolo[5,4-b]pyridin-5-yl)oxy) propan-2-yl (6-fluoro-5-methylpyridin-3-yl)carbamate]"
18,30 nM,"CNC(=O)c1cnc2c(-c3nc4cc(F)c(O[C@@H](C)[C@@H](C)OC(=O)Nc5cnc(C)nc5)cc4s3)cc(C)cc2n1 [Example 614, (2R,3S)-3-((5-fluoro-2-(7-methyl-2-(methylcarbamoyl)quinoxalin-5-yl)benzo[d]thiazol-6-yl)oxy)butan-2-yl (2-methylpyrimidin-5-yl)carbamate]"
19,2.2 nM,"COc1cnc2c(-c3nc4c(Cl)c(F)c(O[C@@H](C)[C@@H](C)OC(=O)Nc5cccnc5)cc4s3)cc(C)cc2n1 [Example 404, (2R,3S)-3-((4-chloro-5-fluoro-2-(2-methoxy-7-methylquinoxalin-5-yl)benzo[d]thiazol-6-yl)oxy)butan-2-yl pyridin-3-ylcarbamate]"
20,5.6 nM,"COc1cnc2c(-c3nc4cc(F)c(O[C@@H](C)[C@@H](C)OC(=O)Nc5ccc(N(C)C)nc5)cc4s3)cc(C)cc2n1 [Example 599, (2R,3S)-3-((5-fluoro-2-(2-methoxy-7-methylquinoxalin-5-yl)benzo[d]thiazol-6-yl)oxy)butan-2-yl (6-(dimethylamino)pyridin-3-yl)carbamate]"
21,2.3 nM,"COc1cnc2c(-c3nc4cc(F)c(O[C@@H](C)[C@@H](C)OC(=O)Nc5cnc(C)nc5)nc4s3)cc(C)cc2c1 [Example 791, (2R,3S)-3-((6-fluoro-2-(3-methoxy-6-methylquinolin-8-yl)thiazolo[5,4-b]pyridin-5-yl)oxy)butan-2-yl (2-methylpyrimidin-5-yl)carbamate]"
22,98 nM,"Cc1cc(-c2nc3cccc(OCCOCc4ccccc4)c3s2)c2ncc(OC(F)F)nc2c1 [Example 18, 7-(2-(benzyloxy)ethoxy)-2-(2-(difluoromethoxy)-7-methylquinoxalin-5-yl) benzo[d]thiazole]"
23,0.7 nM,"CCOc1cnc2c(-c3nc4cc(F)c(O[C@@H](C)[C@@H](C)OC(=O)Nc5cnc(CCOP(=O)(O)O)nc5)cc4s3)cc(C)cc2n1 [Example 624, (2R,3S)-3-((2-(2-ethoxy-7-methylquinoxalin-5-yl)-5-fluorobenzo[d]thiazol-6-yl)oxy)butan-2-yl (2-(2-(phosphonooxy)ethyl)pyrimidin-5-yl)carbamate]"
24,1.5 nM,"COc1cnc2c(-c3nc4cc(F)c(OC[C@@H](C)OC(=O)Nc5ccnc(CCO)c5)cc4s3)cc(C)cc2n1 [Example 545, (R)-1-((5-fluoro-2-(2-methoxy-7-methylquinoxalin-5-yl)benzo[d]thiazol-6-yl)oxy)propan-2-yl (2-(2-hydroxyethyl)pyridin-4-yl)carbamate]"
25,1.5 nM,"COCc1cnc2c(-c3nc4c(F)cc(OC)cc4s3)cc(C)cc2n1 [Example 254, 4-fluoro-6-methoxy-2-(2-(methoxymethyl)-7-methylquinoxalin-5-yl)benzo[d]thiazole]"
26,19 nM,"COc1cnc2c(-c3nc4cc(F)c(OC(C)C)cc4s3)cc(CO)cc2n1 [Example 248, (8-(5-fluoro-6-isopropoxybenzo[d]thiazol-2-yl)-3-methoxyquinoxalin-6-yl)methanol]"
27,3.6 nM,"COCc1cnc2c(-c3nc4ccc(CO)cc4s3)cc(C)cc2n1 [Example 308, (2-(2-(methoxymethyl)-7-methylquinoxalin-5-yl)benzo[d]thiazol-6-yl)methanol]"
28,2 nM,"COCc1cc(OC)cc2sc(-c3cc(C)cc4nc(OC)cnc34)nc12 [Example 808, 6-methoxy-2-(2-methoxy-7-methylquinoxalin-5-yl)-4-(methoxymethyl)benzo[d]thiazole]"
29,8.6 nM,"COc1cnc2c(-c3nc4cc(F)c(O[C@@H](C)[C@@H](C)OC(=O)Nc5ccc6[nH]c(=O)oc6c5)nc4s3)cc(Cl)cc2c1 [Example 777, (2R,3S)-3-((2-(6-chloro-3-methoxyquinolin-8-yl)-6-fluorothiazolo[5,4-b]pyridin-5-yl)oxy) butan-2-yl (2-oxo-2,3-dihydrobenzo[d]oxazol-6-yl)carbamate]"

# Source: patent US12060347B2 (BRISTOL-MYERS SQUIBB COMPANY, priority 2016, dated 2024)
